# Reference: patent US9650325B2, “Compound, preparing method thereof, and use thereof as inhibitors of histone demethylase” (SNU R&DB FOUNDATION, priority 2013, dated 2017)
# Assays:
# [1] = test system: KDM5; test: Immunoblotting of histone from tripartin-treated HeLa cell line: KDM5 inhibitory activity (H3K4me3); type: cell-based, human; settings: 10 μM, 24 hours, vs DMSO control
# Description: (§1) HeLa cell line, which is a uterine cervical cancer cell line, was treated with tripartin and then histone was extracted from the tripartin-treated HeLa cell. A histone methylation antibody which may verify activity of the KDM was analyzed by immunoblotting to measure the KDM inhibiting effect.
# (§2) 0.1% (w/v) DMSO (control group), or 0.1% (w/v) DMSO and 10 μM tripartin (experimental group) was added to the HeLa cell line, which was then incubated at 37° C. for 24 hours. Subsequently, proteins were extracted from the HeLa cell line, and the extracted proteins underwent electrophoresis with 15% SDS-polyacrylamide. Anti-histone H3 antibody (MILLIPORE), anti-H3K9me3 antibody (MILLIPORE), anti-H3K9me2 antibody (MILLIPORE), anti-H3K3me1 antibody (MILLIPORE), anti-H3K27me3 antibody (MILLIPORE), anti-H3K4me3 antibody (MILLIPORE), anti-H3K36me3 antibody (MILLIPORE), anti-H3K79me2 antibody (MILLIPORE), and anti-H3ace antibody (MILLIPORE) were used to perform immunoblotting. […] Herein, H”, “K”, “me”, and “ace” refer to histone, lysine (K), methylation, and acetylation, respectively. The number next to “H” refers to a histone number, the number next to “K” refers to the histone amino acid number, and the number next to “me” refers to the number of methylation. For example, “H3K9me3” refers to histone H3 with a tri-methylated lysine in the ninth position. […]
# [2] = test system: KDM6; test: Immunoblotting of histone from tripartin-treated HeLa cell line: KDM6 inhibitory activity (H3K27me3); type: cell-based, human; settings: 10 μM, 24 hours, vs DMSO control
# Description: as §1, §2
# [3] = test system: KDM4; test: Immunoblotting of histone from tripartin-treated HeLa cell line: KDM4 inhibitory activity (H3K9me3); type: cell-based, human; settings: 10 μM, 24 hours
# Description: as §1, §2
# [4] = test system: KDM2/7; test: Immunoblotting of histone from tripartin-treated HeLa cell line: KDM2/7 inhibitory activity (H3K36me3); type: cell-based, human; settings: 10 μM, 24 hours, vs DMSO control
# Description: as §1, §2
# [5] = Analysis of physicochemical properties of tripartin
# [6] = test system: KDM3; test: Immunoblotting of histone from tripartin-treated HeLa cell line: KDM3 inhibitory activity (H3K9me2/1); type: cell-based, human; settings: 10 μM, 24 hours, vs DMSO control
# Description: as §1
# (§3) 0.1% (w/v) DMSO (control group), or 0.1% (w/v) DMSO and 10 μM tripartin (experimental group) was added to the HeLa cell line, which was then incubated at 37° C. for 24 hours. Subsequently, proteins were extracted from the HeLa cell line, and the extracted proteins underwent electrophoresis with 15% SDS-polyacrylamide. Anti-histone H3 antibody (MILLIPORE), anti-H3K9me3 antibody (MILLIPORE), anti-H3K9me2 antibody (MILLIPORE), anti-H3K3me1 antibody (MILLIPORE), anti-H3K27me3 antibody (MILLIPORE), anti-H3K4me3 antibody (MILLIPORE), anti-H3K36me3 antibody (MILLIPORE), anti-H3K79me2 antibody (MILLIPORE), and anti-H3ace antibody (MILLIPORE) were used to perform immunoblotting. […] Herein, H”, “K”, “me”, and “ace” refer to histone, lysine (K), methylation, and acetylation, respectively. The number next to “H” refers to a histone number, the number next to “K” refers to the histone amino acid number, and the number next to “me” refers to the number of methylation. For example, “H3K9me3” refers to histone H3 with a tri-methylated lysine in the ninth position.
# (§4) KDM3, KDM4, KDM6, KDM5, and KDM2/7 demethylate H3K9me2/1, H3K9me3, H3K27, H3K4, and H3K36, respectively.
# [7] = test system: HeLa cell line; test: Immunoblotting of histone from tripartin-treated HeLa cell line: other histone marks (H3, H3K79me2, H3ace); type: cell-based, human; settings: 10 μM, 37° C., 24 hours, vs DMSO control
# Description: as §1, §3, §4
smiles,measurement,setting,value
O=C1C[C@@](O)(C(Cl)Cl)c2c(O)cc(O)cc21 [tripartin],H3K4me3 level (immunoblotting),[1]; 37° C.,not increased
same,KDM5 inhibitory effect,[1],No inhibitory effect
same,H3K27me3 level (immunoblotting),[2]; 37° C.,not increased
same,KDM6 inhibitory effect,[2],No inhibitory effect
same,H3K9me3 level (immunoblotting),"[3]; 37° C., vs DMSO control",increased significantly
same,KDM4 inhibitory effect,[3]; in comparison to the DMSO control group,inhibitory effect
same,H3K36me3 level (immunoblotting),[4]; 37° C.,not increased
same,KDM2/7 inhibitory effect,[4],No inhibitory effect
same,Solubility,[5]; intermediate organic solvent such as methanol and acetone,well dissolved
same,Stability of the solid,[5]; room temperature,stable at room temperature
same,H3K9me1 level (immunoblotting),[6]; 37° C.,not increased
same,H3K9me2 level (immunoblotting),[6]; 37° C.,not increased
same,KDM3 inhibitory effect,[6],No inhibitory effect
same,H3K79me2 level (immunoblotting),[7],not increased
same,H3ace level (immunoblotting),[7],not increased
same,H3 level (immunoblotting),[7],not increased
